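48-hour exposure; five concentrations; linearly interpolated endpoints. GI50 = concentration required for 50% inhibition of growth. At the TGI there is no net growth.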 Where a SMILES comes first, the peptide text is derived from it. The star is where a group is joined. Cbz = O=C(OCc1ccccc1)*
Assays:
Experiment in all cases: inhibition of tumour cell growth, NCI panel, 48 h
[1] = system: SK-MEL-28 melanoma
[2] = system: SN12C renal
[3] = system: HCT-116 colon
[4] = system: SW-620 colon
[5] = system: A498 renal
[6] = system: SR leukemia
[7] = system: MALME-3M melanoma
[8] = system: HT29 colon
[9] = system: EKVX NSCLC
[10] = system: T-47D breast

Structure (SMILES)	TGI [1] [µM]	TGI [2] [µM]	TGI [3] [µM]	TGI [4] [µM]	TGI [5] [µM]	TGI [6] [µM]	TGI [7] [µM]	TGI [8] [µM]	TGI [9] [µM]	TGI [10] [µM]	GI50 [1] [nM]	GI50 [2] [µM]	GI50 [3] [nM]	GI50 [5] [µM]	GI50 [6] [nM]	GI50 [7] [nM]	GI50 [10] [nM]	GI50 [8] [nM]	GI50 [9] [µM]
CCOC(=O)c1cn2c(ccc3sc4ccccc4c(=O)c32)n1	> 100	> 100	> 100	> 100	> 100	> 100	> 100	> 100	> 100	–	–	–	–	–	–	–	–	–	–
CC(C)N(/C(F)=N\C(=O)Nc1ccccc1C(F)(F)F)C(C)C	> 100	> 100	> 100	> 100	–	> 100	> 100	> 100	> 100	–	–	–	–	–	–	–	–	–	–
O=C1CCCC2=C1CC1=C(CCCC1=O)N2c1cccc([N+](=O)[O-])c1	> 100	> 100	–	> 100	> 100	> 100	–	> 100	> 100	–	–	–	–	–	–	–	–	–	–
O=c1[nH]c(=O)n2n1C1C=CC2CC1	> 100	> 100	> 100	> 100	> 100	> 100	–	> 100	> 100	> 100	–	–	–	–	–	–	–	–	–
O=[N+]([O-])c1ccc(O)c(C=NCC2CCCN3CCCCC23)c1 (stereo unspecified)	–	–	> 100	–	–	–	> 100	> 100	> 100	–	–	–	–	–	–	–	–	–	–
COc1ccc(-c2nc3cc(C(F)(F)F)ccc3n2CC2CCCN3CCCCC23)cc1 (stereo unspecified)	28.2	–	33.6	28.5	26.2	31.3	–	26.1	24.5	48.2	–	–	–	–	–	–	–	–	–
O=P1(Oc2ccccc2)NCc2ncccc2O1 (stereo unspecified)	> 100	> 100	> 100	> 100	> 100	> 100	–	> 100	> 100	> 100	–	–	–	–	–	–	–	–	–
CN(C)/C=C/c1c2c(nc3ccccc13)C(=O)c1ccccc1C2=O	0.55	2.84	3.26	5.04	9.24	3.09	–	4.85	5.47	5.19	–	–	–	–	–	–	–	–	–
CCN(CC)CC(=O)Nc1ccc2c(c1)C(=O)c1ccc(NC(=O)CN(CC)CC)cc1C2=O	> 100	> 100	30.5	69.8	> 100	41.7	–	> 100	> 100	–	–	–	–	–	–	–	–	–	–
CCOC(=O)CNC(=O)C(C)NC(=O)C(NC(=O)OCc1ccccc1)C(C)C (stereo not drawn) (Cbz-Val-Ala-Gly-OEt; configuration not given here)	> 100	> 100	> 100	> 100	–	> 100	> 100	> 100	> 100	–	–	–	–	–	–	–	–	–	–
C[C@]12CCc3sc(-c4cccc(F)c4)nc3C1=CC[C@@H]1[C@@H]2CC[C@]2(C)C(=O)CC[C@@H]12	4.07	> 100	3.56	–	17.9	10.5	4.13	> 100	87.2	5.24	1530	3.01	1730	3.2	2620	1800	2000	2690	4.79
Brc1ccc(-c2cc(-c3ccc4c(c3)OCO4)c(-c3cccs3)n2Cc2ccccc2)cc1	> 100	> 100	> 100	> 100	–	> 100	–	> 100	> 100	> 100	–	–	–	–	–	–	–	–	–
CCOC(=O)C1=C(C)NC(C)=C(C(=O)OCC)C1c1ccc(C)cc1	> 100	80.5	> 100	> 100	97.9	–	–	> 100	> 100	> 100	–	–	–	–	–	–	–	–	–
S=C(c1c[nH]c2ccccc12)N1CCCCC1	> 100	> 100	> 100	> 100	> 100	> 100	> 100	> 100	> 100	–	–	–	–	–	–	–	–	–	–
COc1cc2cc3c4c(cc(OC)c(OC)c4c2cc1OC)CCN3C(=O)CCC(=O)O	> 100	> 100	> 100	> 100	> 100	> 100	> 100	> 100	> 100	–	–	–	–	–	–	–	–	–	–
Cc1[nH]c(=O)nc(N(CCO)/N=C/c2ccc(Cl)cc2)c1C(=O)Nc1ccc(Cl)cc1	> 100	> 100	> 100	> 100	> 100	–	68.3	> 100	> 100	> 100	–	–	–	–	–	–	–	–	–
Cc1nn(-c2ccccc2)c2nc3ccc(Cl)cc3c(-c3ccccc3)c12	> 100	> 100	> 100	> 100	–	> 100	> 100	> 100	> 100	> 100	–	–	–	–	–	–	–	–	–
O[C@H]1[C@H](O)[C@@H](Cn2nnc(-c3ccccc3)c2-c2ccccc2)OCO[C@@H]1Cn1nnc(-c2ccccc2)c1-c1ccccc1	> 67.1	7.55	9.63	46.6	16	–	29.6	3.61	30.1	31.6	–	–	–	–	–	–	–	–	–
CC(=O)OC(=C(C#N)C#N)c1nccnc1C(C)=O	> 20	> 20	–	> 20	> 20	> 20	> 20	8.94	> 20	> 20	–	–	–	–	–	–	–	–	–
O=S(=O)(O)c1ccccc1N=Nc1ccc(N=Nc2c(O)ccc3ccccc23)c(S(=O)(=O)O)c1	> 100	> 100	> 100	> 100	–	–	> 100	> 100	> 100	> 100	–	–	–	–	–	–	–	–	–
COc1cc2cc(C(=O)N3CC(CCl)c4c3cc(O)c3ccccc43)[nH]c2c(OC)c1OC (stereo unspecified)	–	–	5.85	> 50	0.82	> 50	< 0.005	> 50	0.597	> 50	–	–	–	–	–	–	–	–	–
CCc1c(C)c2ccc(OCC(=O)N=Nc3c(O)[nH]c4ccccc34)c(C)c2oc1=O	–	–	–	–	> 33.3	> 33.3	–	–	> 33.3	–	–	–	–	> 33.3	1200	–	–	–	> 33.3
Cc1ccc([N+](=O)[O-])cc1S(=O)(=O)Nc1ccc(C2=NN(S(=O)(=O)c3cc([N+](=O)[O-])ccc3C)C(c3ccco3)C2)cc1 (stereo unspecified)	> 100	> 100	> 100	> 100	–	> 100	> 100	> 100	94	92.9	–	–	–	–	–	–	–	–	–

Structure (SMILES)	TGI [1] [µM]	TGI [2] [µM]	TGI [3] [µM]	TGI [4] [µM]	TGI [5] [µM]	TGI [6] [µM]	TGI [7] [µM]	TGI [8] [µM]	TGI [9] [µM]	TGI [10] [µM]	GI50 [1] [nM]	GI50 [2] [µM]	GI50 [3] [nM]	GI50 [5] [µM]	GI50 [6] [nM]	GI50 [7] [nM]	GI50 [10] [nM]	GI50 [8] [nM]	GI50 [9] [µM]
COc1cccc(C=C2N=C(C)N(n3c(-c4ccccc4)nc4ccccc4c3=O)C2=O)c1	> 100	> 100	> 100	> 100	> 100	> 100	–	> 100	> 100	> 100	–	–	–	–	–	–	–	–	–
Cc1c(-c2ccc(O)c(O)c2)oc(=O)c2c(O)cccc12	–	19.5	20	61.2	33.1	–	26.9	–	> 100	15.4	–	–	–	–	–	–	–	–	–
NC(N)=NS(=O)(=O)c1ccc(NC(=O)c2ccc3nc4ccccc4c(N)c3c2)cc1	> 100	> 100	> 100	> 100	–	> 100	> 100	> 100	> 100	> 100	–	–	–	–	–	–	–	–	–
COc1cc(C(=O)OCCn2[nH]c(-c3ccc(Cl)cc3)nc2=S)cc(OC)c1OC	> 100	> 100	> 100	> 100	> 100	> 100	> 100	> 100	> 100	–	–	–	–	–	–	–	–	–	–
NC(=O)C1N=NSC1NC(=O)c1ccc([N+](=O)[O-])cc1 (stereo unspecified)	> 100	> 100	> 100	> 100	–	–	> 100	> 100	> 100	> 100	–	–	–	–	–	–	–	–	–
COc1ccc(/C=C2\CN(C)CC3C2=NN(c2ccccc2)C3c2ccc(OC)cc2)cc1 (stereo unspecified)	> 100	> 100	> 100	> 100	> 100	–	> 100	> 100	> 100	> 100	–	–	–	–	–	–	–	–	–
O=C1C=C2CC[C@H]3[C@@H]4CC[C@H](Oc5c6ccccc6nc6ccccc56)[C@H]4CC[C@@H]3[C@H]2CC1	> 100	> 100	> 100	> 100	–	–	–	> 100	> 100	> 100	–	–	–	–	–	–	–	–	–
O=C(CCc1ccc(O)cc1)NCCCNC(=O)CCc1ccc(O)cc1	> 100	> 100	> 100	> 100	> 100	> 100	> 100	> 100	–	> 100	–	–	–	–	–	–	–	–	–
CS/C=C\C(=O)O[C@H]1C[C@@H]2[C@@H](O)c3occ(C)c3C[C@]2(C)[C@@H](C)C1	35.9	30.2	31.4	> 100	–	99.4	35.6	51.8	> 100	76.9	–	–	–	–	–	–	–	–	–
Cc1nnc([C@@]2(C)CC[C@H]3[C@@H](CCC4=CC(=O)CC[C@@]43C)[C@@H]2CC#N)o1	–	> 100	> 100	> 100	> 100	> 100	> 100	> 100	> 100	–	–	–	–	–	–	–	–	–	–
CCCCS(=O)CC(CO)NC(=O)/C=C/c1c(C)[nH]c(=O)[nH]c1=O (stereo unspecified)	44.5	49	88.2	152	32.5	–	14.6	122	43	–	–	–	–	–	–	–	–	–	–
CC(=O)OC1OC(c2ccoc2)C[C@@]12C1CCC3O[C@]3(C)[C@]1(C)C[C@H](OC(C)=O)[C@H]2C (stereo partly specified)	> 75	> 75	> 75	> 75	> 75	> 75	–	> 75	> 75	> 75	–	–	–	–	–	–	–	–	–
CC#CCCCC1(C)CCCNC1=S (stereo unspecified)	–	> 10	–	> 10	–	> 10	> 10	> 10	> 10	> 10	–	–	–	–	–	–	–	–	–
O=C1Nc2ccccc2/C1=C\c1c(Cl)nc2n1CCS2	> 100	> 100	68	> 100	61.4	–	62.1	> 100	> 100	91	–	–	–	–	–	–	–	–	–
CC(C)(O)CCc1ccc(O)c2c(=O)c3c(O)c4c(cc3oc12)O[C@H]1OC=C[C@@]41O	1.38	> 100	4.52	27.8	–	> 100	–	> 100	> 61.2	–	–	–	–	–	–	–	–	–	–
Cc1nc2ccccc2n1Cc1nnc2n1N=C(c1ccccc1)CS2	> 100	> 100	> 100	> 100	> 100	–	> 100	> 100	> 100	43.5	–	–	–	–	–	–	–	–	–
NC(=O)SCC(=O)Nc1ccc2ncccc2c1	> 100	> 100	> 100	> 100	> 100	> 100	> 100	> 100	> 100	–	–	–	–	–	–	–	–	–	–
COc1ccc(-c2cc(-c3ccccc3)nc3c2CC(=O)Nc2ccccc2-3)cc1OC	> 100	> 100	–	> 100	50.5	> 100	> 70.3	> 100	> 100	> 100	–	–	–	–	–	–	–	–	–
CCCCc1c2c(nc3c1CC/C(=C\c1ccc([N+](=O)[O-])cc1)C3=O)CCCC2	3.12	3.34	3.22	3.53	–	35.5	3.84	2.66	23.7	–	–	–	–	–	–	–	–	–	–
Cc1ccc(S(=O)(=O)N2CCCSCCN(S(=O)(=O)c3ccc(C)cc3)CCCSCC2)cc1	> 100	> 100	> 100	> 100	> 100	–	–	> 100	> 100	> 100	–	–	–	–	–	–	–	–	–
COc1ccc(-c2nc3c(nc2-c2ccc(OC)cc2)N(C)S(=O)(=O)N=C3N)cc1	> 100	> 100	30.7	> 100	> 100	35.3	58.8	74.9	–	–	–	–	–	–	–	–	–	–	–
NC(=S)N/N=C1\CCCCC1C(O)(C(F)(F)Cl)C(F)(F)Cl (stereo unspecified)	> 10	> 10	> 10	> 10	> 10	–	> 10	> 10	> 10	> 10	–	–	–	–	–	–	–	–	–
NC(C(=O)OC(=O)c1ccccc1)C(=O)OC(=O)c1ccccc1	> 100	> 100	> 100	> 100	> 100	–	> 100	> 100	> 100	> 100	–	–	–	–	–	–	–	–	–

From PubChem BioAssay (NCI)
